Structures are written as SMILES.

One assay has as its target T1, Pri1 (full-length, 1 to 420) (Homo sapiens, UniProt P49642).
T1 construct: gene PRIM1; full-length catalytic subunit alone (1-420), His6 tag cleaved by TEV protease, E. coli Rosetta2 (DE3), pRSFDuet-1
T1 sequence (P49642 1-420): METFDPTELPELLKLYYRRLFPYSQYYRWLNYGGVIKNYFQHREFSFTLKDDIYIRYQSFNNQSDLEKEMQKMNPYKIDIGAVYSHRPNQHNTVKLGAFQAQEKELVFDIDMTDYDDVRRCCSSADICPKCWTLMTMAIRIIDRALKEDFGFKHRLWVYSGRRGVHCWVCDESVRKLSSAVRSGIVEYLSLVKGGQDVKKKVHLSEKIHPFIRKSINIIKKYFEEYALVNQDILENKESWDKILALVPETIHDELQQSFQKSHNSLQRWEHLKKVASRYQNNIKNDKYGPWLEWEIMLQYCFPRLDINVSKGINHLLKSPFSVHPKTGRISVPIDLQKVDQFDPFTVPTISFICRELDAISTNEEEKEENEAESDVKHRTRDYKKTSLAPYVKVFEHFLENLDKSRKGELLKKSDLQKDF
Nature of the assay: fluorescence anisotropy direct titration. In kind it is binding.
Details: not given
As to `O=C(NCCCCCCNc1ncnc2c1ncn2[C@@H]1O[C@H](COP(=O)(O)OP(=O)(O)OP(=O)(O)O)[C@@H](O)[C@H]1O)c1ccc2c(c1)C1(OC2=O)c2ccc(O)cc2Oc2cc(O)ccc21` [6FAM-ATP], the affinity, expressed as Kd, was 410 nM.

In another assay the target is T1, Pri1 (full-length, 1 to 420). Nature of the assay: fluorescence polarization competition against 6FAM-ATP. Conditions: read-out: K1/2. The assay is classed as binding.
For the molecule `Nc1nc(F)nc2c1ncn2[C@@H]1O[C@H](COP(=O)(O)OP(=O)(O)OP(=O)(O)O)[C@@H](O)[C@H]1O` [2F-ATP], the IC50 came out at 7200 nM. As to `Nc1ncnc2c1ncn2[C@@H]1O[C@H](COP(=O)(O)OP(=O)(O)OP(=O)(O)O)[C@@H](O)[C@H]1O` [ATP], the IC50 amounted to 7500 nM. Still for that read-out and setting: the same measure for `Nc1ncnc2c1ncn2[C@H]1C[C@H](O)[C@@H](COP(=O)(O)OP(=O)(O)OP(=O)(O)O)O1` [dATP]: 3300 nM. Same read-out and setting: the same measure for `Nc1nc(F)nc2c1ncn2[C@@H]1O[C@H](COP(=O)(O)OP(=O)(O)OP(=O)(O)O)[C@@H](O)[C@@H]1O` [fludarabine-TP]: 1100 nM; for `Nc1ncnc2c1ncn2[C@@H]1O[C@H](COP(=O)(O)OP(=O)(O)OP(=O)(O)O)[C@@H](O)[C@@H]1O` [vidarabine-TP]: 1500 nM.
